From US9808466B2, “Macrocyclic compounds as protein kinase inhibitors” (Fundación Centro Nacional de Investigaciones Oncologicas …, priority 2011, dated 2017)
pIC50: −log10 of the molar value. Where two headings read alike, the source gives them in different places.

Legend:
mTOR = target: T1, mTOR (Homo sapiens, UniProt P42345); experiment: mTOR assay (LanthaScreen kinase activity assay); assay type: biochemical
T1 construct: purchased Invitrogen PV4754

PIM-1 = target: T2, PIM-1 (Homo sapiens, UniProt P11309); experiment: PIM-1 biochemical assay (ADP Hunter); conditions: PIM1
T2 construct: histidine tag (C); made in house
Method in brief: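 Recombinant His-tagged human PIM-1 (50 pg/μl) with PIMtide peptide (60 μM) and 100 μM ATP in HEPES pH 7.4 buffer with MgCl2, 60 min at 30° C, DMSO below 2%. ADP formed detected by coupled ADP Hunter reaction as resorufin fluorescence (Ex 544/Em 580 nm).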

PI3K (p110α/p85α) = target: T3, PI3K (p110α/p85α) (Homo sapiens, UniProt P42336); experiment: PI3K activity assay (ADP Hunter Plus); assay type: biochemical
T3 construct: purchased Carna Biosciences 07CBS-0402A
Method in brief: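 ADP accumulation measured by coupled fluorescence (ex 544/em 580 nm) after a 1 h kinase reaction at 25 °C, then 30 min at 37 °C with detection reagents. Activity normalised to no-compound control (100%) and IC50 from sigmoid dose-response fit.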

[1] = Pharmacokinetic in BALB-c female mice, i.v. and oral; assay type: in vivo; conditions: mouse, plasma; for half-life: read-out: T½ last (plasmatic half life) (converted); for clearance: read-out: Cl (plasmatic clearance) (converted); for MRT: read-out: MRT (Mean residence time); for Vd: read-out: Vd (volume of distribution); for bioavailability: read-out: F % (bioavailability); for Cmax: read-out: C max (maximum plasma concentration after oral administration)
Experimental: Experiments were done using BALB-c female mice, 10 weeks old. Compounds were dissolved in selected vehicles at a concentration calculated in order to administer the dose selected in 0.1 mL. Animals were administered by i.v and oral route (by gavage), and sacrificed at different time points (n=3 at each time point). Time points were 0.08, 0.25, 0.5, 1, 4 and 8 h for the i.v branch, and 0.08, 0.16, 0.25, 0.5, 1, 4, 8 and 24 h for oral branch. Blood was collected and processed for plasma which was analyzed and quantified by means of tandem mass spectrometry coupled with liquid chromatography. Pharmacokinetic parameters were estimated by fitting the experimental data to a compartmental model using Winnonlin software for pharmacokinetic analysis.

[2] = read-out: mTOR activity, IC50 (semi-quantitative class)
[3] = read-out: mTOR actual IC50 (in parentheses)
[4] = read-out: PIM-1 activity, IC50 (semi-quantitative class)
[5] = read-out: PI3K alpha activity, IC50 (semi-quantitative class)
[6] = read-out: PI3K alpha actual IC50 (in parentheses)
[7] = po, P.O dose 10.00 mg/Kg vs I.V 5.00 mg/Kg

T2 sequence (P11309 whole entry): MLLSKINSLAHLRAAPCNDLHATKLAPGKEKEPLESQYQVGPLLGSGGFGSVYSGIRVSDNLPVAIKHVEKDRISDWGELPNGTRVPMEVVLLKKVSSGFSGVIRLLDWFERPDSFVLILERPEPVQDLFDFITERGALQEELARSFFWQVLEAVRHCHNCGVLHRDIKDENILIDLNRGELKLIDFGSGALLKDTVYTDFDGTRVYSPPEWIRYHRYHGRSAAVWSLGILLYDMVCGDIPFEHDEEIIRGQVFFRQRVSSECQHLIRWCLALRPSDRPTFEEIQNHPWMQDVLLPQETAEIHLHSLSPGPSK
T1 sequence (P42345 1360-2549 limits assumed): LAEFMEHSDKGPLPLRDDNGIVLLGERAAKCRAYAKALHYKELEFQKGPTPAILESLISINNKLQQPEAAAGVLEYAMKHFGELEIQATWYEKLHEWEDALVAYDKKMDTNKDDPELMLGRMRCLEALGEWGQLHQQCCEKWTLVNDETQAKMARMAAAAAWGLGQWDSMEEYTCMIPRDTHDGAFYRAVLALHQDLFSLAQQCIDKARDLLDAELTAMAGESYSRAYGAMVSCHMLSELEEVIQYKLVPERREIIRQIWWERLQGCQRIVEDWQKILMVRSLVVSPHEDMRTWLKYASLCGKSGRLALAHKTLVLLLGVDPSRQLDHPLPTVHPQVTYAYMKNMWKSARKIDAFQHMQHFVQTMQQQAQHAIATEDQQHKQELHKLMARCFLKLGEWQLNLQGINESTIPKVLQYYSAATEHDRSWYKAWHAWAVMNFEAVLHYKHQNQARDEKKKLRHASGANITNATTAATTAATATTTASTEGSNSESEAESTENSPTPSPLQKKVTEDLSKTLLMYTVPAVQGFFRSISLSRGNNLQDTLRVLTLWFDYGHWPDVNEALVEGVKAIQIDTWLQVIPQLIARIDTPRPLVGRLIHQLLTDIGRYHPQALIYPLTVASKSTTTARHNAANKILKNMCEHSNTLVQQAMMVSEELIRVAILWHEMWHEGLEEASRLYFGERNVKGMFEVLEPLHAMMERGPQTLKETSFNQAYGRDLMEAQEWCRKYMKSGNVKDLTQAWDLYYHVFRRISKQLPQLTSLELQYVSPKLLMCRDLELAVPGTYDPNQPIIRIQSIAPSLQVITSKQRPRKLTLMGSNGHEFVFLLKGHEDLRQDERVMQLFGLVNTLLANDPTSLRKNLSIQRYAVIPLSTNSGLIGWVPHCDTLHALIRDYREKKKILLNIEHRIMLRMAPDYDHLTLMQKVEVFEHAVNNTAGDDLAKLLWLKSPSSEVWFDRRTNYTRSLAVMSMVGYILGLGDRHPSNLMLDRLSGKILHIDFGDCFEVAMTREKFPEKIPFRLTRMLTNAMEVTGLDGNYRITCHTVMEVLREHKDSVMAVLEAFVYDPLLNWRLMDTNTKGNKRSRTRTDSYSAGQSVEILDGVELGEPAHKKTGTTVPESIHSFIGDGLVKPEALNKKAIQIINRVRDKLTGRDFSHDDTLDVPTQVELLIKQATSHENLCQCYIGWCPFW
T3 sequence (P42336 whole entry): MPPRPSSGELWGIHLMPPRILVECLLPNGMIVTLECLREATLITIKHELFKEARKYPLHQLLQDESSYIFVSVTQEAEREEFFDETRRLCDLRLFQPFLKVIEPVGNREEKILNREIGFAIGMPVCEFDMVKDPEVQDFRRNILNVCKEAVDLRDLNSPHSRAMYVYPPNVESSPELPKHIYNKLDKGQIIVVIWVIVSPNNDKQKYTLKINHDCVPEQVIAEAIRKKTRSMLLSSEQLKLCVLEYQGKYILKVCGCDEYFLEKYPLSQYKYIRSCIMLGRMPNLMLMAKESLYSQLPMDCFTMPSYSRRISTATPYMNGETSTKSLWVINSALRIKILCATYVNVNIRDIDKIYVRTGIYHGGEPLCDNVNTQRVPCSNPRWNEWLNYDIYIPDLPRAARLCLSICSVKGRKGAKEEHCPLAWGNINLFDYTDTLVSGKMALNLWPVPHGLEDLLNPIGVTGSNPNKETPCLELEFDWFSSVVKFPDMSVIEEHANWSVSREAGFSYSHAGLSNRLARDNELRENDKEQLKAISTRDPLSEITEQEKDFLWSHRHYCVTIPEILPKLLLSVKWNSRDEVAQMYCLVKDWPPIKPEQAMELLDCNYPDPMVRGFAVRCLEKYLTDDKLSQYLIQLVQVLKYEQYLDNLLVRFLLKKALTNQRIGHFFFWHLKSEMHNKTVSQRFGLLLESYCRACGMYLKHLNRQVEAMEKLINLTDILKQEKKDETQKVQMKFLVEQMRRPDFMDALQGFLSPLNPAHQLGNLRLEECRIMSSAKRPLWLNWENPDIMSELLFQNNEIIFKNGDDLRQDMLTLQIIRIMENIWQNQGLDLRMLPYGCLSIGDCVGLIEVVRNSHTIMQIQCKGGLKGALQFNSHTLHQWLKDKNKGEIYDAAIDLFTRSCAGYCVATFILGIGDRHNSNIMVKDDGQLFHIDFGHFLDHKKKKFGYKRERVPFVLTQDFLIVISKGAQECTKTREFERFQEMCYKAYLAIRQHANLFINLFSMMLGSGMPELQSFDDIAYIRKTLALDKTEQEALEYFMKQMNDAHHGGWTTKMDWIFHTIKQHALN
T3 sequence (P27986 whole entry partner): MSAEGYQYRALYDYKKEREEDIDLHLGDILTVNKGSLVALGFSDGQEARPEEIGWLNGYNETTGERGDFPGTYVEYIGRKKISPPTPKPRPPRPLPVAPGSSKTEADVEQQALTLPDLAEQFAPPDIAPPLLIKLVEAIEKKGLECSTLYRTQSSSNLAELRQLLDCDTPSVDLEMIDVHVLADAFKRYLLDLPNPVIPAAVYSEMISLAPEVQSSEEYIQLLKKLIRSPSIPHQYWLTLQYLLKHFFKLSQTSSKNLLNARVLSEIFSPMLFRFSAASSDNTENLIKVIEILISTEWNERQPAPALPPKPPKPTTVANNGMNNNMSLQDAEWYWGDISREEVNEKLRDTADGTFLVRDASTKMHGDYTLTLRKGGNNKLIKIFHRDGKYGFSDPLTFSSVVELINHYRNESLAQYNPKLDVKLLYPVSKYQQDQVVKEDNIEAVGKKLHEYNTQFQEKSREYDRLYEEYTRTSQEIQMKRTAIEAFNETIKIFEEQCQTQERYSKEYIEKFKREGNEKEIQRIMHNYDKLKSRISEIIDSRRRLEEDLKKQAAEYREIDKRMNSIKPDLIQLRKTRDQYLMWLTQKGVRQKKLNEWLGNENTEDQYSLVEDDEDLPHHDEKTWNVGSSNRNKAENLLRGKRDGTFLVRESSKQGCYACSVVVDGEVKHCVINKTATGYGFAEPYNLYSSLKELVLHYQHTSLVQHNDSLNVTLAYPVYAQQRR

SMILES	pIC50 (mTOR; [2])	pIC50 (mTOR; [3])	pIC50 (PIM-1; [4])	pIC50 (PI3K (p110α/p85α); [5])	pIC50 (PI3K (p110α/p85α); [6])	AUC(0-inf) ([1]; iv, I.V, dose 5.00 mg/Kg) [ng·h/mL]	half-life ([1]; iv, I.V, dose 5.00 mg/Kg) [h]	clearance ([1]; iv, I.V, dose 5.00 mg/Kg) [mL/min/kg]	MRT ([1]; iv, I.V, dose 5.00 mg/Kg) [h]	Vd ([1]; iv, I.V, dose 5.00 mg/Kg) [L/kg]	bioavailability [1, 7] [%]	AUC(0-inf) ([1]; po, P.O, dose 10.00 mg/Kg) [ng·h/mL]	Cmax ([1]; po, P.O, dose 10.00 mg/Kg) [ng/mL]	also measured
COc1ncc2cc1NS(=O)(=O)c1cccc(c1)C(=O)NCc1cccc(c1)-c1cnn3ccc-2nc13 [compound 16]	> 7.00	8.40	< 6.00	> 7.00	9.05	23600	2.23	4.5	3.33	0.99	123	29200	4820	–
COc1ncc2cc1NS(=O)(=O)c1cccc(c1)C(=O)NCc1cncc(c1)-c1ccnc3ccc-2nc13 [compound 31]	> 7.00	7.64	< 6.00	> 7.00	8.70	8930	0.39	11.5	0.81	0.56	34	6080	1640	–
COc1ncc2cc1NS(=O)(=O)c1cccc(c1)C(=O)NCCn1cc(cn1)-c1ncnc3ccc-2cc13 [compound 33]	> 7.00	8.32	< 6.00	> 7.00	8.89	9160	2.91	10	1.87	1.12	48.1	8810	1270	–
COc1ncc2cc1NS(=O)(=O)c1cccc(c1)C(=O)N1CCc3ccc(cc3C1)-c1ccnc3ccc-2cc13 [compound 39]	> 7.00	9.52	< 6.00	> 7.00	10.30	–	–	–	–	–	–	–	–	AUC(0-inf) ([1]; iv, I.V, dose 1.00 mg/Kg): 4460 ng·h/mL; half-life ([1]; iv, I.V, dose 1.00 mg/Kg): 1.66 h; clearance ([1]; iv, I.V, dose 1.00 mg/Kg): 4.17 mL/min/kg; MRT ([1]; iv, I.V, dose 1.00 mg/Kg): 2.39 h; Vd ([1]; iv, I.V, dose 1.00 mg/Kg): 0.59 L/kg; bioavailability ([1]; po, P.O dose 3.00 mg/Kg vs I.V 1.00 mg/Kg): 26.8%; AUC(0-inf) ([1]; po, P.O, dose 3.00 mg/Kg): 3580 ng·h/mL; Cmax ([1]; po, P.O, dose 3.00 mg/Kg): 962 ng/mL
COc1ncc2cc1NS(=O)(=O)c1cccc(c1)C(=O)NCC1=CC=C(S1)c1ncnc3c1SC2=C3C [compound 68]	> 7.00	7.05	> 7.00	> 7.00	8.60	16600	3.15	0.667	10.9	0.49	34.5	57300	2930	pIC50 (PIM-1; read-out: PIM-1 actual IC50 (in parentheses)): 7.55
